Measurements taken from patent US10676514B2, “CDCA1-derived peptide and vaccine containing same” (ONCOTHERAPY SCIENCE, INC., priority 2014, dated 2020).
“Also recorded” adds a separate entry of the source.

Assays:
[1] = test system: peptide-pulsed C1R-A11 cells; test: IFN-gamma ELISPOT assay of peptide-induced CTLs (HLA-A*1101); assay type: cell-based, human; conditions: CTLs induced from HLA-A*1101-positive donors, peptide-pulsed C1R-A11 vs control
Excerpt: Monocyte-derived dendritic cells (DCs) were used as the antigen-presenting cell to induce a cytotoxic T lymphocyte (CTL) response against peptides presented on human leukocyte antigens (HLAs). As described in the other sections, DCs were generated in vitro (Nakahara S et al., Cancer Res 2003, 63(14): 4112-8). Specifically, peripheral-blood mononuclear cells isolated from healthy volunteers (HLA-A*1101-positive) with the Ficoll-Paque plus solution (Pharmacia) were separated by attaching to plastic tissue culture dishes (Becton Dickinson) and concentrated as a monocyte fraction. The monocyte-concentrated population was cultured in the presence of 1000 IU/ml granulocyte macrophage colony-stimulating factor (R&D System) and 1000 IU/ml interleukin(IL)-4 (R&D System) in an AIM-V medium (Invitrogen) containing 2% heat-inactivated autologous serum (AS). After seven days of culturing, the cytokine-induced DCs were pulsed with 20 micro-g/ml each of the synthesized peptides in an AIM-V medium at 37 degrees C. for three hours in the presence of 3 micro-g/ml beta 2-microglobulin. The generated cells appeared to express on their cell surface DC-associated molecules such as CD80, CD83, CD86 and HLA class II (data not shown). Next, these peptide-pulsed DCs were inactivated by X-ray irradiation (20 Gy), and mixed in a 1:20 ratio with autologous CD8^+ T cells obtained by positive selection using the CD8 Positive Isolation Kit (Dynal). These culture products were seeded in a 48-well plate (Corning). Each well was made to contain 1.5×10^4 peptide-pulsed DCs, 3×10^5 CD8^+ T cells and 10 ng/ml IL-7 (R&D System) in 0.5 ml of the AIM-V/2% AS medium. Three days later, these culture products were added with a final concentration of 20 IU/ml IL-2 (CHIRON). On day 7 and day 14, T cells were further stimulated with peptide-pulsed autologous DCs. The DCs were prepared every time by the same method as above. On day 21, after the third peptide stimulation, CTLs were examined against the peptide-pulsed C1R-A11 cells by a human interferon (IFN)-gamma enzyme-linked immunospot (ELISPOT) assay (Tanaka H et al., Br J Cancer 2001, 84(1): 94-9; Umano Y et al., Br J Cancer 2001, 84(8): 1052-7; Uchida N et al., Clin Cancer Res 2004, 10(24): 8577-86; Suda T et al., Cancer Sci 2006, 97(5): 411-9; Watanabe T et al., Cancer Sci 2005, 96(8): 498-506).
(§1) Specifically, peptide-pulsed C1R-A11 (1×10^4 cells/well) was prepared as the stimulator cell. The induced CTLs, i.e., CTL lines and CTL clones, were used as the responder cell. The IFN-gamma ELISPOT assay and IFN-gamma ELISA were performed according to the manufacturer's manual.

peptide-pulsed C1R-A11 = test: IFN-gamma ELISA of CTL lines and CTL clones (HLA-A*1101); assay type: cell-based, human; conditions: for IFN-gamma production of CTL lines: peptide-pulsed vs non-pulsed target cells, HLA-A*1101
Method: CTLs were propagated in culture using methods similar to those disclosed by Riddell et al. (Walter E A et al., N Engl J Med 1995, 333(16): 1038-44; Riddell S R et al., Nat Med 1996, 2(2): 216-23). The CTLs were co-cultured in a total of 25 ml AIM-V medium containing 5% AS (AIM-V/5% AS) and 40 ng/ml anti-CD3 antibody with two types of Mitomycin C-treated human B lymphoblastoid cell lines at 5×10^6 cells/flask. One day after beginning of the culturing, 120 IU/ml IL-2 was added to the culture. On days 5, 8 and 11, a fresh AIM-V/5% AS medium containing 30 IU/ml IL-2 was added to the culture (Tanaka H et al., Br J Cancer 2001, 84(1): 94-9; Umano Y et al., Br J Cancer 2001, 84(8): 1052-7; Uchida N et al., Clin Cancer Res 2004, 10(24): 8577-86; Suda T et al., Cancer Sci 2006, 97(5): 411-9; Watanabe T et al., Cancer Sci 2005, 96(8): 498-506).
Dilution of CTLs was carried out to make 0.3, 1 and 3 cells/well in 96 round-bottomed microtiter plates (Nalge Nunc International). The CTLs were co-cultured with two types of Mitomycin C-treated human B lymphoblastoid cell lines at 1×10^4 cells/well in a total of 150 micro-l/well AIM-V/5% AS medium with 30 ng/ml anti-CD3 antibody and 125 IU/ml IL-2. Ten days later, IL-2 was added to the medium at 50 micro-l/well to reach a final concentration of 125 IU/ml. On day 14, the CTL activity was tested, and the CTL clones were propagated using the same method as described above (Uchida N et al., Clin Cancer Res 2004, 10(24): 8577-86; Suda T et al., Cancer Sci 2006, 97(5): 411-9; Watanabe T et al., Cancer Sci 2005, 96(8): 498-506).
as §1

AAHQEALMK (a peptide derived from CDCA1) [SEQ ID NO: 13]
peptide-specific CTL activity (IFN-gamma production) ([1]; listed as CDCA1-A1-9-157): potent IFN-gamma production
peptide-specific CTL activity (IFN-gamma production) ([1]; listed as CDCA1-A11-9-157): potent IFN-gamma production; also recorded: significant specific CTL activity
IFN-gamma production of CTL lines (peptide-pulsed C1R-A11): potent IFN-gamma production

CQLEVQLYQK (a peptide derived from CDCA1) [SEQ ID NO: 39]
peptide-specific CTL activity (IFN-gamma production) ([1]; listed as CDCA1-A11-10-289): potent IFN-gamma production; also recorded: significant specific CTL activity
peptide-specific CTL activity (IFN-gamma production) ([1]; listed as CDCA1A11-10-289): potent IFN-gamma production

GADGKNLTK (a peptide derived from CDCA1) [SEQ ID NO: 21]
peptide-specific CTL activity (IFN-gamma production) ([1]; listed as CDCA1-A11-9-25): potent IFN-gamma production; also recorded: significant specific CTL activity
IFN-gamma production of CTL lines (peptide-pulsed C1R-A11): potent IFN-gamma production

IVDSPEKLK (a peptide derived from CDCA1) [SEQ ID NO: 14]
peptide-specific CTL activity (IFN-gamma production) ([1]; listed as CDCA1-A11-9-244): potent IFN-gamma production; also recorded: significant specific CTL activity

IVLQEGNSQK (a peptide derived from CDCA1) [SEQ ID NO: 40]
peptide-specific CTL activity (IFN-gamma production) ([1]; listed as CDCA1-A11-10-203): potent IFN-gamma production; also recorded: significant specific CTL activity

KAAEDSYAK (a peptide derived from CDCA1) [SEQ ID NO: 9]
peptide-specific CTL activity (IFN-gamma production) ([1]; listed as CDCA1-A11-9-439): potent IFN-gamma production; also recorded: significant specific CTL activity
IFN-gamma production of CTL lines (peptide-pulsed C1R-A11): potent IFN-gamma production

KILTGADGK (a peptide derived from CDCA1) [SEQ ID NO: 12]
peptide-specific CTL activity (IFN-gamma production) ([1]; listed as CDCA1-A1-9-21): potent IFN-gamma production
peptide-specific CTL activity (IFN-gamma production) ([1]; listed as CDCA1-A11-9-21): potent IFN-gamma production; also recorded: significant specific CTL activity

KINKKHEDVK (a peptide derived from CDCA1) [SEQ ID NO: 58]
peptide-specific CTL activity (IFN-gamma production) ([1]; listed as CDCA1-A1-10-358): potent IFN-gamma production
peptide-specific CTL activity (IFN-gamma production) ([1]; listed as CDCA1-A11-10-358): significant specific CTL activity
peptide-specific CTL activity (IFN-gamma production) ([1]; listed as CDCA1A11-10-358): potent IFN-gamma production
IFN-gamma production of CTL lines (peptide-pulsed C1R-A11): potent IFN-gamma production

KSNISEKTK (a peptide derived from CDCA1) [SEQ ID NO: 17]
peptide-specific CTL activity (IFN-gamma production) ([1]; listed as CDCA1-A11-9-213): potent IFN-gamma production; also recorded: significant specific CTL activity

KTEENSFKR (a peptide derived from CDCA1) [SEQ ID NO: 19]
peptide-specific CTL activity (IFN-gamma production) ([1]; listed as CDCA1-A1-9-335): potent IFN-gamma production
peptide-specific CTL activity (IFN-gamma production) ([1]; listed as CDCA1-A11-9-335): potent IFN-gamma production; also recorded: significant specific CTL activity

NAAHQEALMK (a peptide derived from CDCA1) [SEQ ID NO: 45]
peptide-specific CTL activity (IFN-gamma production) ([1]; listed as CDCA1-A1-10-156): significant specific CTL activity
peptide-specific CTL activity (IFN-gamma production) ([1]; listed as CDCA1-A11-10-156): potent IFN-gamma production

NSFKRLMIVK (a peptide derived from CDCA1) [SEQ ID NO: 30]
peptide-specific CTL activity (IFN-gamma production) ([1]; listed as CDCA1-A11-10-339): potent IFN-gamma production; also recorded: significant specific CTL activity
IFN-gamma production of CTL lines (peptide-pulsed C1R-A11): potent IFN-gamma production

SFKRLMIVKK (a peptide derived from CDCA1) [SEQ ID NO: 53]
peptide-specific CTL activity (IFN-gamma production) ([1]; listed as CDCA1-A11-10-340): potent IFN-gamma production; also recorded: significant specific CTL activity

SQEIFLNLK (a peptide derived from CDCA1) [SEQ ID NO: 6]
peptide-specific CTL activity (IFN-gamma production) ([1]; listed as CDCA1-A11-9-419): potent IFN-gamma production; also recorded: significant specific CTL activity
IFN-gamma production of CTL clones (peptide-pulsed C1R-A11; CTL clones by limiting dilution, peptide-pulsed C1R-A11, listed as CDCA1-A11-9-419): Potent IFN-gamma production
IFN-gamma production of CTL lines (peptide-pulsed C1R-A11): potent IFN-gamma production

TADILCPKAK (a peptide derived from CDCA1) [SEQ ID NO: 56]
peptide-specific CTL activity (IFN-gamma production) ([1]; listed as CDCA1-A1-10-106): significant specific CTL activity
peptide-specific CTL activity (IFN-gamma production) ([1]; listed as CDCA1-A11-10-106): potent IFN-gamma production

TAELKRKMFK (a peptide derived from CDCA1) [SEQ ID NO: 35]
peptide-specific CTL activity (IFN-gamma production) ([1]; listed as CDCA1-A11-10-452): potent IFN-gamma production; also recorded: significant specific CTL activity

VTTINQEIQK (a peptide derived from CDCA1) [SEQ ID NO: 33]
peptide-specific CTL activity (IFN-gamma production) ([1]; listed as CDCA1-A1-10-391): no specific IFN-gamma production
peptide-specific CTL activity (IFN-gamma production) ([1]; listed as CDCA1-A11-10-391): specific IFN-gamma production was not observed
